From article PMC12114796, “Self-Assembled Cannabigerol-Based Nanoparticles: Design, Synthesis, and Antiproliferative Activity” (Pharmaceutics, 2025)
Read-outs that look alike come from different tables or passages of the source.

Key:
[1] = system: MSTO-211H (human biphasic mesothelioma) cells; assay: Cell viability, trypan blue dye exclusion assay (antiproliferative activity); assay type: cell-based; conditions: 72 h
Procedure: (§1) The cell lines used in our study were purchased from ATCC (American Type Culture Collection). […] LN229 (human glioblastoma) cells were cultured in DMEM (D2902, Merck) supplemented with 3.5 g/L glucose and 5% FCS. NaHCO3 (S5761, Merck), as indicated in the manufacturer’s instructions, 100 U/mL penicillin, 100 μg/mL streptomycin, and 0.25 μg/mL amphotericin B (A5955, Merck) were added to the culture media. The cells were maintained at 37 °C in a humidified atmosphere incubator containing 5% carbon dioxide in air.
(§2) The cell viability was analyzed by a trypan blue dye exclusion assay. Briefly, 3–4 × 10^4 cells were seeded in each well of a 24-well cell culture plate and treated with test drugs or NPs at concentrations ranging from 1 to 30 nM and from 0.01 to 20 μM, respectively, after 24 of growth in standard conditions. After 72 h from the treatment, the cells were detached by trypsinization and counted by optical microscope.

[2] = system: MeT-5A (human mesothelium, non-tumorigenic) cells; assay: as above; assay type: cell-based; conditions: 72 h
Procedure: as §1, §2

[3] = system: LN229 (human glioblastoma) cells; assay: as above; assay type: cell-based
Procedure: as §1, §2

[4] = system: HT-29 (human colorectal adenocarcinoma) cells; assay: as above; assay type: cell-based; conditions: HT-29, 72 h
Procedure: as §1, §2

[5] = system: microtubules in LN229 cells; assay: Confocal microscopy of microtubule status (anti-β-tubulin staining); assay type: cell-based, human; conditions: LN229, 4 h; Desa 3 µM, Np1b 200 µM, PTX and Np2b at indicated concentrations
Procedure: LN229 cells (3 × 10^4) were seeded in 4-well cell culture chamber on a glass slide and cultured up to 50–60% confluence. […] After incubation, the cells were gently washed twice with PBS, fixed with 4% formaldehyde at room temperature for 15 min, washed twice with PBS, and permeabilized with 0.1% Triton X-100 (T8787, Merck) in PBS for 5 min in the dark. Again, the cells were washed twice with PBS and incubated for 30 min in the dark with 7% FCS in PBS. […] After washing twice with PBS, 0.001 mg/mL DAPI (MBD0015, Merck) was added for 15 min, then the cells were washed with PBS, and the coverslips were mounted on glass slides using Fluoroshield^TM (F6182, Merck). […] Particle counting and size distribution were estimated using the built-in Analyze Particles plugin in Image J (Fiji).

LN229 cells = assay: Cell cycle analysis by flow cytometry (propidium iodide); assay type: cell-based, human; conditions: LN229, 48 h
Procedure: A total of 2 × 10^5 LN229 cells were seeded in Petri culture plates, left to grow for 24 h in standard conditions, and then treated with CPT and Np3b at the indicated concentrations. After 48 h, the cells were harvested, centrifuged, combined with ice-cold 70% w/v ethanol, and left at 4 °C for 20 min. Then, the cells were centrifuged, and the pellet was resuspended in a final volume of 300 μL PBS containing 0.1 mg mL^−1 RNAse (R6513, Merck) and […] propidium iodide (P4170, Merck). The DNA content was quantified by a BD FACSAria III flow cytometer (BD Life Sciences) and the data were analyzed by BD FACSDiva software (version 9.0). Statistical analysis was performed by Student’s t-test.

[6] = system: LN229, HT-29, MSTO-211H and MeT-5A cells; assay: Antiproliferative activity compared across the cell line panel; assay type: cell-based; conditions: Homo sapiens; all four cell lines, 72 h; read-out: GI50 values (range over the cell lines)
Procedure: The cell lines used in our study were purchased from ATCC (American Type Culture Collection). Specifically, we used LN-229 (ATCC CRL-2611), HT-29 (ATCC HTB-38), and MSTO-211H (ATCC CRL-2081). MeT-5A (ATCC CRL-9444), MSTO-211H (human biphasic mesothelioma), and Met-5A (human mesothelium) cells were grown in RPMI 1640 (R6504, Merck) supplemented with 2.38 g/L Hepes (H3375, Merck, St. Louis, MO, USA), 0.11 g/L pyruvate sodium (P5280, Merck), 2.5 g/L glucose (G6152, Merck), and 10% heat-inactivated fetal calf serum (FCS, F7524, Merck). HT-29 (human colorectal adenocarcinoma) cells were grown in RPMI 1640 (R6504, Merck) supplemented with 10% heat-inactivated FCS. LN229 (human glioblastoma) cells were cultured in DMEM (D2902, Merck) supplemented with 3.5 g/L glucose and 5% FCS. NaHCO3 (S5761, Merck), as indicated in the manufacturer’s instructions, 100 U/mL penicillin, 100 μg/mL streptomycin, and 0.25 μg/mL amphotericin B (A5955, Merck) were added to the culture media. The cells were maintained at 37 °C in a humidified atmosphere incubator containing 5% carbon dioxide in air.
The cell viability was analyzed by a trypan blue dye exclusion assay. […] After 72 h from the treatment, the cells were detached by trypsinization and counted by optical microscope. […]

Compound: CC(=O)O[C@H]1C(=O)[C@@]2(C)[C@H]([C@H](OC(=O)c3ccccc3)[C@]3(O)C[C@H](OC(=O)[C@H](O)[C@@H](NC(=O)c4ccccc4)c4ccccc4)C(C)=C1C3(C)C)[C@]1(OC(C)=O)CO[C@@H]1C[C@@H]2O [PTX, paclitaxel]
- GI50 [1]: 3.3 ± 0.6 nM
- GI50 [2]: 4.4 ± 0.1 nM
- GI50 ([3]; LN-229, 72 h): 4.2 ± 0.7 nM
- GI50 [4]: 2.8 ± 0.2 nM
- effect on microtubule network [5]: polymerizing effect

Compound: CC[C@@]1(O)C(=O)OCc2c1cc1n(c2=O)Cc2cc3ccccc3nc2-1 [CPT, camptothecin]
- cells in G2/M phase (LN229 cells; 20 nM CPT (control 11.7%)): 33.4%
- cells in G1 phase (LN229 cells; 20 nM CPT (control 69.4%)): 49.4%
- GI50 ([1]; mean ± SD, read-out: GI50): 3.3 ± 1 nM
- GI50 ([2]; mean ± SD, read-out: GI50): 7.8 ± 0.2 nM
- GI50 ([3]; LN-229, LN229, 72 h, mean ± SD, read-out: GI50): 7.9 ± 0.1 nM
- GI50 ([4]; mean ± SD, read-out: GI50): 7.9 ± 0.8 nM

Compound: CCCCCc1cc(O)c(C/C=C(\C)CCC=C(C)C)c(O)c1 [CBG, Cannabigerol]
- GI50 [1]: 16000 ± 2000 nM
- GI50 [2]: 16000 ± 2000 nM
- GI50 ([3]; LN-229, 72 h): 5900 ± 1300 nM
- GI50 [4]: 9700 ± 200 nM
- GI50 [6]: 5.9 to 16 µM
